Measured values as given in patent US7312358B2, “Pharmaceutically active sulfanilide derivatives” (Laboratoires Serono SA, priority 2000, dated 2007).

Columns and labels:
hOT-R = target: T1, hOT-R (Homo sapiens, UniProt P30559); experiment: Inhibition of oxytocin mediated Ca2+-mobilization by FLIPR (HEK cells); format: cell-based; conditions: fluo-4, OT 40 nM
T1 construct: expressed in transfected cells; host or cells: HEK (Human Embryonic Kidney) cells
T1 sequence (P30559 1-389): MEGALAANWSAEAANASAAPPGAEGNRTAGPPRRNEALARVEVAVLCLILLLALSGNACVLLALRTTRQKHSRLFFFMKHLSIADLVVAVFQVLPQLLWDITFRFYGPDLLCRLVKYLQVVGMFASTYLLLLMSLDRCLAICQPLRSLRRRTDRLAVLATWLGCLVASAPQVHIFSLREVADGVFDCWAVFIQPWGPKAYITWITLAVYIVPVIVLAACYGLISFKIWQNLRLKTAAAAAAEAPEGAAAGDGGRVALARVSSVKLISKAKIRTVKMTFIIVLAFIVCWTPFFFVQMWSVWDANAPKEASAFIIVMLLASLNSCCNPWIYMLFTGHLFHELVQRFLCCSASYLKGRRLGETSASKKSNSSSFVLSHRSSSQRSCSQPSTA
From the text: c) Functional Assay No. 1: Inhibition of Oxytocitn Mediated Ca^2+-Mobilization by FLIPR (Fluorescent Imaging Plate Reader)
FLIPR is a machine for fluorescence imaging using a laser that is capable of illuminating a 96-well plate and a means of simultaneously reading each well thus enabling rapid measurements on a large number of samples.
This assay intends to show the inhibition of the OT/OT-R mediated calcium mobilisation—being necessary to cause uterine contractions—by using test compounds of formula (I).
Preparing the plates: FLIPR-plates were pre-coated with PLL (Poly-L-Lysine) 10 μg/ml+0.1% gelatine to attach the HEK (Human Embryonic Kidney) cells for 30 min up to 2 days at 37° C. The cells were plated out into 96-well plates (60000 cells/well).
Labelling with fluo-4: […] fluo-4 (fluorescent marker) were dissolved in 20 μl pluronic acid (20% in DMSO). The dissolved fluo-4 was then diluted in 10 ml DMEM (Dubecco's Minimal Essential Medium-F12 medium without FCS (Fetal Calf Serum). The medium was removed from the plates, followed by one wash with DNEM-F12 medium. Now, 100 μl of the DMEM-F12 medium containing fluo-4 were added and the cells incubated for 1.5-2 h (HEK-cells). The cells now contain the fluorescent marker.
Buffer: 145 mM NaCl, 5 mM KCl, 1 mM MgCl2, 10 mM Hepes, 10 mM Glucose, EGTA (Ethylene-bis oxyethylene nitrilo tetraacetic acid). Adjust to pH 7.4.
Performance of the assay: A minimum of 80 μl/well of antagonists (5×) in the above buffer (1×) were prepared (96-well plates). The antagonists were added to the well-plates at different concentrations (30 μM, 10 μM, 1 μM, 300 nM, 100 nM, 10 nM, 1 nM, 100 pM, 10 pM).
OT is added at a concentration of 40 nM.
The fluorescent marker being sensitive to the amount of Ca^2+ mobilized within the cell may be quantified by the FLIPR machine.
The activities of the sulfanilide derivatives according to formula I were assessed using the above described in vitro biological assay. The values refer to the capacity of the example compounds according to formula I to effectively antagonize oxytocin-induced intracellular Ca^2+-mobilization mediated by the oxytocin receptor.

hOT receptor = target: T2, hOT receptor (Homo sapiens, UniProt P30559); experiment: In vitro competition binding assay on hOT receptor with scintillating proximity assay; conditions: membranes from HEK293EBNA cells expressing hOT receptor; radiolabel [125I]-OVTA; SPA; read-out: Binding Affinity Human OT-R Ki
T2 construct: expressed in transfected cells; host or cells: HEK293EBNA cells (membranes)
T2 sequence (P30559 1-389): T1 sequence (P30559 1-389)
Experimental: a) In Vitro Competition Binding Assay on hOT Receptor with Scintillating Proximity Assay (Pharmaceutical Manufacturing International, 1992, p. 49-53 by Cook, N. D. et al)
This assays allows to determine the affinity of the test compounds for the OT receptor. Membranes from HEK293EBNA cells expressing the hOT receptor were resuspended in buffer containing 50 mM Tris-HCl, pH 7.4, 5 mM MgCl2 and 0.1% BSA (w/v). The membranes (2-4 μg) were mixed with 0.1 mg wheat-germ aglutinin (WGA) SPA bead (type A) and 0.2 nM of the radiolabel [^125I]-OVTA (OVTA being […] and is an analogue of OT for competition binding experiments). Non-specific binding was determined in the presence of 1 μM Oxytocin. The total assay volume was 100 μl. The plates (Corning (D NBS plate) were incubated at room temperature for 30 min and counted on a Mibrobeta plate counter. The tests compounds were used in concentrations of 30 μM, 10 μM, 1 μM, 300 nM, 100 nM, 10 nM, 1 nM, 100 pM, 10 pM. The competition binding data were analysed using the iterative, nonlinear, curve-fitting program, “Prism”.
The binding affinities to the oxytocin receptor of the sulfanilide derivatives claimed in the formula I were assessed using the above described in vitro biological assay. The values refer to the binding affinity (IC50; μM) of the example compounds according to formula I to the Oxytocin receptor. From the values shown in Table 1 it can be derived that said test compounds according to formula I do show a significant binding to the oxytocin receptor.

Structure (SMILES)	IC50 (hOT-R) [nM]	melting point [°C]	Ki (hOT receptor) [nM]
COc1ccc(N(CC(=O)Nc2cccc(Cl)c2C)S(=O)(=O)c2ccccc2)cc1 [2-[Benzenesulfonyl-(4-methoxy-phenyl)-amino]-N-(3-chloro-2-methyl-phenyl)-acetamide]	45		
COc1ccc(N(CC(=O)Nc2cccc(OC)c2)S(=O)(=O)c2ccccc2)cc1 [2-[Benzenesulfonyl-(4-methoxy-phenyl)-amino]-N-(3-methoxy-phenyl)-acetamide]	392		
COc1ccc(N(CC(=O)Nc2cccc3ccccc23)S(=O)(=O)c2ccccc2)cc1 [2-[Benzenesulfonyl-(4-methoxy-phenyl)-amino]-N-naphthalen-1-yl-acetamide]	363		
CCOc1ccc(S(=O)(=O)N(CC(=O)N/N=C2/C(=O)N(C)c3ccccc32)c2ccc(C)cc2)cc1 [Example 20, 4-ethoxy-N-{2-[2-(1-methyl-2-oxo-1,2-dihydro-3H-indol-3-ylidene)hydrazino]-2-oxoethyl}-N-(4-methylphenyl)benzenesulfonamide]		109 to 110	
CCOc1ccc(S(=O)(=O)N(CC(=O)N/N=C(/C)c2ccccc2O)c2ccc(C)cc2)cc1 [Example 22, 4-ethoxy-N-(2-{2-[1-(2-hydroxyphenyl)ethylidene]hydrazino}-2-oxoethyl)-N-(4-methylphenyl)benzenesulfonamide]		199 to 200	
CC(C)(C)c1ccc(S(=O)(=O)N(CC(=O)N/N=C2/C(=O)Nc3ccccc32)c2ccc(Cl)cc2)cc1 [Example 26, 4-tert-Butyl-N-(4-chlorophenyl)-N-{2-oxo-2-[(2E)-2-(2-oxo-1,2-dihydro-3H-indol-3-ylidene)hydrazino]ethyl}benzenesulfonamide]		194 to 195	
COc1ccc(S(=O)(=O)N(CC(=O)N/N=C2/C(=O)Nc3ccccc32)c2ccc(Cl)cc2)cc1OC [Example 27, N-(4-chlorophenyl)-3,4-dimethoxy-N-{2-oxo-2-[(2E)-2-(2-oxo-1,2-dihydro-3H-indol-3-ylidene)hydrazino]ethyl}benzenesulfonamide]		132 to 133	
Cc1ccc(N(CC(=O)N/N=C2/C(=O)Nc3ccccc32)S(=O)(=O)c2ccc(C(C)(C)C)cc2)cc1 [Example 28, 4-tert-Butyl-N-(4-methylphenyl)-N-{2-oxo-2-[(2E)-2-(2-oxo-1,2-dihydro-3H-indol-3-ylidene)hydrazino]ethyl}benzenesulfonamide]		139 to 140	
CCCc1ccc(S(=O)(=O)N(CC(=O)N/N=C2/C(=O)Nc3ccccc32)c2ccc(C)cc2)cc1 [Example 29, N-(4-methylphenyl)-N-{2-oxo-2-[(2E)-2-(2-oxo-12-dihydro-3H-indol-3-ylidene)hydrazino]ethyl}-4-propylbenzenesulfonamide]		198 to 199	
CCCCOc1ccc(S(=O)(=O)N(CC(=O)N/N=C2/C(=O)Nc3ccccc32)c2ccc(C)cc2)cc1 [Example 30, 4-Butoxy-N-(4-methylphenyl)-N-{2-oxo-2-[(2E)-2-(2-oxo-1.2-dihydro-3H-indol-3-ylidene)hydrazino]ethyl}benzenesulfonamide]		111 to 112	
CCOc1ccc(S(=O)(=O)N(CC(=O)N/N=C2\C(=O)Nc3ccccc32)c2ccc(Cl)cc2)cc1 [Example 40, N-(4-chlorophenyl)-4-ethoxy-N-{2-oxo-2-[(2Z)-2-(2-oxo-1,2-dihydro-3H-indol-3-ylidene)hydrazino]ethyl}benzenesulfonamide]	102		0.4
COCCOCCOc1ccc(S(=O)(=O)N(CC(=O)N/N=C2\C(=O)Nc3ccccc32)c2ccc(Cl)cc2)cc1 [Example 61, N-(4-chlorophenyl)-4-[2-(2-methoxyethoxy)ethoxy]-N-{2-oxo-2-[(2Z)-2-(2-oxo-1,2-dihydro-3H-indol-3-ylidene)hydrazino]ethyl}benzenesulfonamide]	6.9		2.9
COCCOc1ccc(S(=O)(=O)N(CC(=O)N/N=C2\C(=O)Nc3ccccc32)c2ccc(Cl)cc2)cc1 [Example 62, N-(4-chlorophenyl)-4-(2-methoxyethoxy)-N-{2-oxo-2-[(2Z)-2-(2-oxo-1,2-dihydro-3H-indol-3-ylidene)hydrazino]ethyl}benzenesulfonamide]	8		
O=C(CN(c1ccc(Cl)cc1)S(=O)(=O)c1ccc(OCCCc2cccnc2)cc1)N/N=C1\C(=O)Nc2ccccc21 [Example 63, N-(4-chlorophenyl)-N-{2-oxo-2-[(2Z)-2-(2-oxo-1,2-dihydro-3H-indol-3-ylidene)hydrazino]ethyl}-4-[3-(3-pyridinyl)propoxy]benzenesulfonamide]	17		2.8
O=C(CN(c1ccc(Cl)cc1)S(=O)(=O)c1ccc(NCCN2CCOCC2)cc1)N/N=C1\C(=O)Nc2ccccc21 [Example 65, N-(4-chlorophenyl)-4-{[2-(4-morpholinyl)ethyl]amino}-N-{2-oxo-2-[(2Z)-2-(2-oxo-1,2-dihydro-3H-indol-3-ylidene)hydrazino]ethyl}benzenesulfonamide]	49		6.9
Cc1ccc(N(CC(=O)N/N=C2\C(=O)Nc3ccccc32)S(=O)(=O)c2ccc(CCC(N)=O)cc2)cc1 [Example 66, 3-{4-[(4-methyl{2-oxo-2-[(2Z)-2-(2-oxo-1,2-dihydro-3H-indol-3-ylidene)hydrazino]ethyl}anilino)sulfonyl]phenyl}propanamide]	19		3.4
COC(=O)c1cccc2c1NC(=O)/C2=N\NC(=O)CN(c1ccc(Cl)cc1)S(=O)(=O)c1ccc(OCCCN(C)C)cc1 [Example 70, Methyl (3Z)-3-({[4-chloro({4-[3-(dimethylamino)propoxy]phenyl}sulfonyl)anilino]acetyl}hydrazono)-2-oxo-2,3-dihydro-1H-indole-7-carboxylate]	393		108
CN(C)CCCNC(=O)CCc1ccc(S(=O)(=O)N(CC(=O)N/N=C2\C(=O)Nc3ccccc32)c2ccc(Cl)cc2)cc1 [Example 71, 3-{4-[(4-chloro{2-oxo-2-[(2Z)-2-(2-oxo-1,2-dihydro-3H-indol-3-ylidene)hydrazino]ethyl}anilino)sulfonyl]phenyll}-N-[3-(dimethylamino)propyl]propanamide]	14		0.7
Cc1ccc(N(CC(=O)NCc2ccc(Cl)cc2Cl)S(=O)(=O)c2ccc(C)cc2)cc1 [N-(2,4-Dichloro-benzyl)-2-[(toluene-4-sulfonyl)-p-tolyl-amino]-acetamide]	595		
